Here are results for one compound from US20100226992A1 (ALCON RESEARCH, LTD., priority 2009, published 2010).

The pIC50 is −log10 of the IC50, conventionally taken in molar units.

In the test the test system is FGFR. Kind of test: Kinase inhibition, cell-free enzymatic assay. Type of test: biochemical. As to conditions: 1 mM ATP.

SMILES strings stand for the structures. pIC50: −log10 of the molar value.

In the case of `Cc1ccc(F)c(NC(=O)Nc2ccc(-c3cccc4[nH]nc(N)c34)cc2)c1` [RTK Inhibitor, N-[4-(3-amino-1H-indazol-4-yl)phenyl]-N′-(2-fluoro-5-methylphenyl)urea], the pIC50 was under 4.90.
